The values that follow come from patent US20190330224A1, “ACC INHIBITORS AND USES THEREOF” (Gilead Apollo, LLC, priority 2015, published 2019).

≈ marks a conversion by molar mass, not a printed value. Where two headings read alike, the source gives them in different places.

One assay relates to C. albicans ATCC 90028. Nature of the assay: Anti-Fungal Activity Assay (broth microtiter MIC), C. albicans. The following applies: for MIC: Candida albicans, ATCC90028, 48 h, read-out: MIC C. albicans ATCC 90028. In kind it is cell-based, Candida albicans. As to the method: (§1) Compounds of the present invention were evaluated in an Anti-Fungal Activity Assay. An exemplary procedure for the assay, which measures the susceptibility of various Candida species to anti-fungal compounds, follows. Compounds to be tested (including fluconazole and amphotericin B) were dissolved in DMSO to obtain a solution having a concentration of 1 mg/mL. […] All species were grown from frozen stock by directly plating on to freshly prepared Sabouraud Dextrose agar (BD, Difco) and incubated overnight in ambient air at 35° C. for 24 h. A direct suspension was prepared in RPMI 1640+MOPS (Lonza, Biowhittaker) by taking individual colonies from the overnight cultures using sterile swabs soaked in sterile saline. The concentration of the suspension was determined using pre-determined standard curves. […] Broth microtiter MIC challenge plates were prepared following CLSI guidelines (M27-A3, Vol. 28 No. 14). The original CLSI guidelines focused on reading Candida MICs after 48 h of incubation. As reading after only 24 h offers a clear advantage of patient care, QC limits are being established for all drugs at 24 h. That being said there are no known interpretive breakpoints for amphotericin B at 24 h and the current fluconazole interpretive breakpoints are based on a 48 h reading. The MIC breakpoints for the test compounds were recorded at 48 h, and for the soraphen the 24 h time-point was added. All MIC determinations were achieved by visually comparing the growth found in the antibiotic challenged wells to that of the growth control.

A further assay relates to C. krusei ATCC 6258. As to the kind of experiment: Anti-Fungal Activity Assay (broth microtiter MIC), C. krusei. The format is cell-based, Candida krusei. The following applies: for MIC: Pichia kudriavzevii, ATCC6258, 48 h, read-out: MIC C. krusei ATCC 6258. As to the method: as §1
In the next assay the target is Human ACC2 (Homo sapiens, UniProt O00763). As to the kind of experiment: In vitro ACC2 inhibition assay (ADP-Glo), human ACC2. The format is biochemical. The following applies: 5 nM ACC2, 20 μM ATP, 20 μM acetyl-CoA.
In assay [1] the test system is C. parapsilosis ATCC 22019. Nature of the assay: Anti-Fungal Activity Assay (broth microtiter MIC), C. parapsilosis. In kind it is cell-based, Candida parapsilosis. The following applies: for MIC: Lodderomyces parapsilosis, ATCC22019, 48 h, read-out: MIC C. parapsilosis ATCC 22019. How it is done:
as §1

The mark [2] stands for this setting: 3 replicates, MIC recorded at 48 h.

Human ACC2, sequence (O00763 whole entry): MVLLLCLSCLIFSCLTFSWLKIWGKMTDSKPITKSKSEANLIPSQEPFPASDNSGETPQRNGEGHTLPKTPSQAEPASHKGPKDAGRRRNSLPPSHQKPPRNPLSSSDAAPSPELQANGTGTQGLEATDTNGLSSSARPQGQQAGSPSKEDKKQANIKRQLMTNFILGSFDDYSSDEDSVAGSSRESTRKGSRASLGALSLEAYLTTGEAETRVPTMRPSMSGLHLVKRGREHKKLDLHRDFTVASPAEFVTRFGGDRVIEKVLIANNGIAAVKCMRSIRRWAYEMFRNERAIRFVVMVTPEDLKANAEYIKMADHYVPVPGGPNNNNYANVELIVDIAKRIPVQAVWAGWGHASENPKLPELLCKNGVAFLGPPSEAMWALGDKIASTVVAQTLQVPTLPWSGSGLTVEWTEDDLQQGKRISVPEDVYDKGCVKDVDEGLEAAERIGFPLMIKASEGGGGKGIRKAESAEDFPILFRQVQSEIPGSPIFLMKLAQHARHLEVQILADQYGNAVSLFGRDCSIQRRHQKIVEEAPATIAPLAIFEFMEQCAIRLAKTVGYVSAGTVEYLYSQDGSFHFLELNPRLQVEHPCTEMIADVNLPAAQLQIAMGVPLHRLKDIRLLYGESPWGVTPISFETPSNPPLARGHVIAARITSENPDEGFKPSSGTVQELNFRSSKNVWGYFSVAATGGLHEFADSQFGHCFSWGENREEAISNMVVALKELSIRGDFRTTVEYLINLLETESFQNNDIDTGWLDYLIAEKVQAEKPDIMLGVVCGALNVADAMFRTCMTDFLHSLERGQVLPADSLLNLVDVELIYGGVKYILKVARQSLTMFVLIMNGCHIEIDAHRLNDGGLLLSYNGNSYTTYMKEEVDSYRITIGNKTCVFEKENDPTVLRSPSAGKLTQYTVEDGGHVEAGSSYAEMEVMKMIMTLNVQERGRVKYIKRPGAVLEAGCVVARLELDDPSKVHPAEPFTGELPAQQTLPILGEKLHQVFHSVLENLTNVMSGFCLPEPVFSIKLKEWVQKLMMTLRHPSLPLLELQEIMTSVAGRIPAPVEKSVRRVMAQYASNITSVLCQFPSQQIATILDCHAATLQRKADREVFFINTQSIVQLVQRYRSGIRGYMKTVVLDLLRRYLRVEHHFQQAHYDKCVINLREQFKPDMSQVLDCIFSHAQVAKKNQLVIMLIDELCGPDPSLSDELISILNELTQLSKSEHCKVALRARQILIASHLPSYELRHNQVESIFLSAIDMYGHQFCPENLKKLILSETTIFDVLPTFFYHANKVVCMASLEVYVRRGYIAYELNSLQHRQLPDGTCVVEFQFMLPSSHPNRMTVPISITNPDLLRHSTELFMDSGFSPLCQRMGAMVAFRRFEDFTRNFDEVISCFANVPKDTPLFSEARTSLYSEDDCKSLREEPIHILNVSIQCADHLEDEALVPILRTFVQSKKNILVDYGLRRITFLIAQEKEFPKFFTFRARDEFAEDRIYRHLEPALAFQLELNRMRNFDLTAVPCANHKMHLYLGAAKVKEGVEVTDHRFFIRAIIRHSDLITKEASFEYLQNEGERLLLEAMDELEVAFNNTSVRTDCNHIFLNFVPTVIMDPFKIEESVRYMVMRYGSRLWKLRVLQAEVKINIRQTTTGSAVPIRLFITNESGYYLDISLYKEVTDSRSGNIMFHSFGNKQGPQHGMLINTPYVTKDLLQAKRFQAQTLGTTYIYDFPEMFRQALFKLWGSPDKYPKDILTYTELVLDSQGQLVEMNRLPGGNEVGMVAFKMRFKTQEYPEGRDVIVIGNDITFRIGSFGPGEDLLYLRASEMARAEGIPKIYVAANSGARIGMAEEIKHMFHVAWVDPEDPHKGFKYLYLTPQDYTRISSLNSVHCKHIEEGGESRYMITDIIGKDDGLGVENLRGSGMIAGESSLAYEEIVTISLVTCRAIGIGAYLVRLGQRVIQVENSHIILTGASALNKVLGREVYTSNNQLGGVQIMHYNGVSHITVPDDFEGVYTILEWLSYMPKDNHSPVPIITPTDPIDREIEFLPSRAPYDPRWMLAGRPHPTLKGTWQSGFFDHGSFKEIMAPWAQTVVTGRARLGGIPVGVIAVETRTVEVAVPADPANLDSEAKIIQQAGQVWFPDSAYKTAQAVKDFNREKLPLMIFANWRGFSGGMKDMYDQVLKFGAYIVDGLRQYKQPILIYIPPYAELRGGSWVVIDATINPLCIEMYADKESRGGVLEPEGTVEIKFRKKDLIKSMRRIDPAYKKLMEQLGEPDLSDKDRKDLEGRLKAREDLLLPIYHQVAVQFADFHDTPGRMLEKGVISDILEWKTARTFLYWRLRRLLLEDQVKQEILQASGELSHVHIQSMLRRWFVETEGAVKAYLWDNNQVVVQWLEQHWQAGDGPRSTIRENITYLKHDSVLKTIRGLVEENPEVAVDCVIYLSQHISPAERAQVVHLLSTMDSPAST

A word on the MIC: it is the lowest concentration found to suppress growth. The term IC50 denotes the concentration needed to halve the response being measured. Read a low IC50 as higher potency. In the case of `COc1ccc(F)cc1[C@H](Cn1c(=O)n(C2CCN(C)C2=O)c(=O)c2c(C)c(-c3ncco3)sc21)OC1CCOCC1` (stereo partly drawn) [Compound I-59, 1-((R)-2-(5-fluoro-2-methoxyphenyl)-2-((tetrahydro-2H-pyran-4-yl)oxy)ethyl)-5-methyl-3-(1-methyl-2-oxopyrrolidin-3-yl)-6-(oxazol-2-yl)thieno[2,3-d]pyrimidine-2,4(1H,3H)-dione], the minimal inhibitory concentration (MIC) is 1.1 to 2 µg/mL (≈ 1.84 to 3.34 µM) in the assay with C. albicans ATCC 90028 (setting [2]), 0.25 to 1 µg/mL (≈ 0.418 to 1.67 µM) in the assay on C. krusei ATCC 6258 (setting [2]) and 2.1 to 4 µg/mL (≈ 3.51 to 6.68 µM) in assay [1] (setting [2]). Also, at Human ACC2, the IC50 was 2 to 10 nM.
Consider `COCCO[C@@H](Cn1c(=O)n([C@@H]2CCN(C)C2=O)c(=O)c2c(C)c(-n3nccn3)sc21)c1cc(F)ccc1OCC#N` [Compound I-159, 2-(4-fluoro-2-((R)-1-(2-methoxyethoxy)-2-(5-methyl-3-((R)-1-methyl-2-oxopyrrolidin-3-yl)-2,4-dioxo-6-(2H2H-1,2,3-triazol-2-yl)-3,4-dihydrothieno[2,3-d]pyrimidin-1 (2H)-yl)ethyl)phenoxy)acetonitrile], for which the minimum inhibitory concentration (MIC) (in the assay on C. albicans ATCC 90028; in the assay on C. krusei ATCC 6258; in assay [1]) was 2.1 to 4 µg/mL (≈ 3.51 to 6.69 µM) throughout. On Human ACC2, this compound showed an IC50 of more than 1000 nM.
`COc1ccc(F)cc1[C@H](Cn1c(=O)n(C2CCN(C)C2=O)c(=O)c2c(C)c(-n3nccn3)sc21)OCCO` (stereo partly drawn) [Compound I-6, 1-((R)-2-(5-fluoro-2-methoxyphenyl)-2-(2-hydroxy-ethoxy)ethyl)-5-methyl-3-(-methyl-2-oxopyrrolidin-3-yl)-6-(2H-1,2,3-triazol-2-yl)thieno[2,3-d]pyrimidine-2,4(1H,3H)-dione]: the MIC (in the assay on C. albicans ATCC 90028 (setting [2]); in the assay on C. krusei ATCC 6258 (setting [2]); in assay [1] (setting [2])) was 2.1 to 4 µg/mL (≈ 3.76 to 7.16 µM) each time. Also, the concentration for half-maximal inhibition (IC50) on Human ACC2 was in the range of 10 to 100 nM.
Turning to `COc1ccccc1[C@H](Cn1c(=O)n(C2CCCN(C)C2=O)c(=O)c2c(C)c(-c3ncco3)sc21)OC1CCOCC1` (stereo partly drawn) [Compound I-50, 1-((R)-2-(2-methoxyphenyl)-2-((tetrahydro-2H-pyran-4-yl)oxy)ethyl)-5-methyl-3-(1-methyl-2-oxopiperidin-3-yl)-6-(oxazol-2-yl)thieno[2,3-d]pyrimidine-2,4(1H,3H)-dione], the MIC (with C. albicans ATCC 90028 (setting [2]); in the assay on C. krusei ATCC 6258 (setting [2]); in assay [1] (setting [2])) was 2.1 to 4 µg/mL (≈ 3.53 to 6.73 µM) each time. The compound further showed a concentration for half-maximal inhibition (IC50) against Human ACC2 of 10 to 100 nM.
Consider `COc1ccc(F)cc1[C@H](Cn1c(=O)n(C2CCCNC2=O)c(=O)c2c(C)c(-n3nccn3)sc21)OC1CCOCC1` (stereo partly drawn) [Compound I-21, 1-((R)-2-(5-fluoro-2-methoxyphenyl)-2-((tetrahydro-2H-pyran-4-yl)oxy)ethyl)-5-methyl-3-(2-oxopiperidin-3-yl)-6-(2H-1,2,3-triazol-2-yl)thieno[2,3-d]pyrimidine-2,4(1H,3H)-dione], for which the minimum inhibitory concentration (MIC) lay within 0.25 to 1 µg/mL (≈ 0.418 to 1.67 µM) in the assay with C. albicans ATCC 90028 (setting [2]), 0.25 to 1 µg/mL (≈ 0.418 to 1.67 µM) with C. krusei ATCC 6258 (setting [2]) and 1.1 to 2 µg/mL (≈ 1.84 to 3.34 µM) in assay [1] (setting [2]). The 50% inhibitory concentration (IC50) on Human ACC2 lay within 2 to 10 nM.
Take `CCN1CC[C@H](n2c(=O)c3c(C)c(-n4nccn4)sc3n(C[C@H](OC3CCOCC3)c3cc(F)ccc3OC)c2=O)C1=O` [Compound I-150, 3-((S)-1-ethyl-2-oxopyrrolidin-3-yl)-1-((R)-2-(5-fluoro-2-methoxyphenyl)-2-((tetrahydro-2H-pyran-4-yl)oxy)ethyl)-5-methyl-6-(2H-1,2,3-triazol-2-yl)thieno[2,3-d]pyrimidine-2,4(1H,3H)-dione]: the MIC in the assay on C. albicans ATCC 90028 (setting [2]) was 0.25 to 1 µg/mL (≈ 0.408 to 1.63 µM); in the assay with C. krusei ATCC 6258 (setting [2]), 0.075 to 0.24 µg/mL (≈ 0.122 to 0.392 µM); in assay [1] (setting [2]), 0.25 to 1 µg/mL (≈ 0.408 to 1.63 µM). The half-maximal inhibitory concentration (IC50) at Human ACC2 was in the range of 2 to 10 nM.
Regarding `COc1ccc(F)cc1[C@H](Cn1c(=O)n(C2CCCNC2=O)c(=O)c2c(C)c(-n3nccn3)sc21)OCCO` (stereo partly drawn) [Compound I-17, 1-((R)-2-(5-fluoro-2-methoxyphenyl)-2-(2-hydroxy-ethoxy)ethyl)-5-methyl-3-(2-oxopiperidin-3-yl)-6-(2H-1,2,3-triazol-2-yl)thieno[2,3-d]pyrimidine-2,4(1H,3H)-dione], the minimum inhibitory concentration (MIC) (in the assay with C. albicans ATCC 90028 (setting [2]); in the assay on C. krusei ATCC 6258 (setting [2]); in assay [1] (setting [2])) was 2.1 to 4 µg/mL (≈ 3.76 to 7.16 µM) in each case. In addition, the half-inhibitory concentration (IC50) against Human ACC2 was in the range of 2 to 10 nM.
In the case of `COc1ccc(F)cc1[C@H](Cn1c(=O)n([C@@H]2CCCN(C)C2=O)c(=O)c2c(C)c(-c3ncco3)sc21)OCCO` [Compound I-65, 1-((R)-2-(5-fluoro-2-methoxyphenyl)-2-(2-hydroxy-ethoxy)ethyl)-5-methyl-3-((R)-1-methyl-2-oxopiperidin-3-yl)-6-(oxazol-2-yl)thieno[2,3-d]pyrimidine-2,4(1H,3H)-dione], the minimum inhibitory concentration (MIC) (in the assay with C. albicans ATCC 90028 (setting [2]); in the assay on C. krusei ATCC 6258 (setting [2]); in assay [1] (setting [2])) was 2.1 to 4 µg/mL (≈ 3.67 to 6.99 µM) each time. This compound showed an IC50 against Human ACC2 of 10 to 100 nM.
With `COc1ccc(F)cc1[C@H](Cn1c(=O)n(C2CCNC2=O)c(=O)c2c(C)c(-c3ncco3)sc21)OC1CCOCC1` (stereo partly drawn) [Compound I-58, 1-((R)-2-(5-fluoro-2-methoxyphenyl)-2-((tetrahydro-2H-pyran-4-yl)oxy)ethyl)-5-methyl-6-(oxazol-2-yl)-3-(2-oxopyrrolidin-3-yl)thieno[2,3-d]pyrimidine-2,4(1H,3H)-dione], the MIC (in the assay with C. albicans ATCC 90028 (setting [2]); with C. krusei ATCC 6258 (setting [2]); in assay [1] (setting [2])) was 2.1 to 4 µg/mL (≈ 3.59 to 6.84 µM) in each case. Also, at Human ACC2, the IC50 was in the range of 2 to 10 nM.
With `COc1ccc(F)cc1[C@H](Cn1c(=O)n([C@@H]2CCN(C(C)C)C2=O)c(=O)c2c(C)c(-n3nccn3)sc21)OC1CCOCC1` [Compound I-139, 1-((R)-2-(5-fluoro-2-methoxyphenyl)-2-((tetrahydro-2H-pyran-4-yl)oxy)ethyl)-3-((R)-1-isopropyl-2-oxopyrrolidin-3-yl)-5-methyl-6-(2H-1,2,3-triazol-2-yl)thieno[2,3-d]pyrimidine-2,4(1H,3H)-dione], the “MIC C. albicans ATCC 90028” value in the assay with C. albicans ATCC 90028 (setting [2]) is “C (provided an MIC of 2.1-4.0 μg/mL)”. The “MIC C. krusei ATCC 6258” value in the assay with C. krusei ATCC 6258 (setting [2]) was “B (provided an MIC of 1.1-2.0 μg/mL)”. Moreover, the half-inhibitory concentration (IC50) at Human ACC2 is 2 to 10 nM. The “MIC C. parapsilosis ATCC 22019” value in assay [1] (setting [2]) is given as “B (provided an MIC of 1.1-2.0 μg/mL)”.
For the compound `COc1ccc(F)cc1[C@H](Cn1c(=O)n([C@@]2(C)CCC(=O)NC2)c(=O)c2c(C)c(-n3nccn3)sc21)OCCO` [Compound I-135, 1-((R)-2-(5-fluoro-2-methoxyphenyl)-2-(2-hydroxy-ethoxy)ethyl)-5-methyl-3-((S)-3-methyl-6-oxopiperidin-3-yl)-6-(2H-1,2,3-triazol-2-yl)thieno[2,3-d]pyrimidine-2,4(1H,3H)-dione], the MIC (in the assay on C. albicans ATCC 90028 (setting [2]); in the assay with C. krusei ATCC 6258 (setting [2]); in assay [1] (setting [2])) was 2.1 to 4 µg/mL (≈ 3.67 to 6.99 µM) each time. The 50% inhibitory concentration (IC50) against Human ACC2 was 10 to 100 nM.
Consider `COc1ccc(F)cc1[C@H](Cn1c(=O)n(C2CCCN(C)C2=O)c(=O)c2c(C)c(-c3ncco3)sc21)OC1CCOCC1` (stereo partly drawn) [Compound I-52, 1-((R)-2-(5-fluoro-2-methoxyphenyl)-2-((tetrahydro-2H-pyran-4-yl)oxy)ethyl)-5-methyl-3-(I-methyl-2-oxopiperidin-3-yl)-6-(oxazol-2-yl)thieno[2,3-d]pyrimidine-2,4(1H,3H)-dione], for which the figures for the MIC (in the assay with C. albicans ATCC 90028 (setting [2]); in the assay on C. krusei ATCC 6258 (setting [2]); in assay [1] (setting [2])) were 2.1 to 4 µg/mL (≈ 3.43 to 6.53 µM), 1.1 to 2 µg/mL (≈ 1.8 to 3.26 µM) and 2.1 to 4 µg/mL (≈ 3.43 to 6.53 µM), respectively. On Human ACC2, this compound yielded an IC50 of 10 to 100 nM.
Turning to `COc1ccc(F)cc1[C@H](Cn1c(=O)n(C2CCCN(C(C)C)C2=O)c(=O)c2c(C)c(-n3nccn3)sc21)OC1CCOCC1` (some centres unmarked) [Compound I-24], the minimal inhibitory concentration (MIC) (in the assay on C. albicans ATCC 90028 (setting [2]); in the assay with C. krusei ATCC 6258 (setting [2]); in assay [1] (setting [2])) was 0.25 to 1 µg/mL (≈ 0.39 to 1.56 µM) each time. The compound further displayed a half-maximal inhibitory concentration (IC50) against Human ACC2 of 10 to 100 nM.
For `CCN1CC[C@@H](n2c(=O)c3c(C)c(-n4nccn4)sc3n(C[C@H](OC3CCOCC3)c3cc(F)ccc3OC)c2=O)C1=O` [Compound I-151], the minimum inhibitory concentration (MIC) in the assay with C. albicans ATCC 90028 (setting [2]) was in the range of 0.25 to 1 µg/mL (≈ 0.408 to 1.63 µM); in the assay on C. krusei ATCC 6258 (setting [2]) it was 0.075 to 0.24 µg/mL (≈ 0.122 to 0.392 µM); in assay [1] (setting [2]), 0.25 to 1 µg/mL (≈ 0.408 to 1.63 µM). The IC50 against Human ACC2 lay within 2 to 10 nM.
